What was measured:
Type in all cases: in vivo
[1] = tested on: POLCO=Polygonum convolvulus L. (wild buckwheat); test: Postemergent herbicidal activity in the greenhouse; conditions: 21-28 DAAA
Description: (§1) Seeds of the desired test plant species were planted in Sun Gro MetroMix® 306 planting mixture, which typically has a pH of 6.0 to 6.8 and an organic matter content of about 30 percent, in plastic pots with a surface area of 103.2 square centimeters (cm^2). When required to ensure good germination and healthy plants, a fungicide treatment and/or other chemical or physical treatment was applied. The plants were grown for 7-36 days (d) in a greenhouse with an approximate 14 hour (h) photoperiod which was maintained at about 18° C. during the day and 17° C. during the night. Nutrients and water were added on a regular basis and supplemental lighting was provided with overhead metal halide 1000-Watt lamps as necessary. The plants were employed for testing when they reached the second or third true leaf stage.
(§2) An aliquot of formulated Compound 5 (100 grams acid equivalent per liter (g ae/L); emusifiable concentrate (EC)), Compound 6 (100 g ae/L; EC) or Compound 7 (100 g ae/L; EC) was placed in a 25 mL glass vial and diluted in a volume of 1.25% (volume per volume (v/v)) aqueous Actirob B esterified rapeseed oil to obtain a stock solution. The concentrated stock solutions were diluted with an aqueous mixture of 1.25% v/v of aqueous Actirob B esterified rapeseed oil to provide the appropriate application rates. Compound requirements are based upon a 12 mL application volume at a rate of 187 liters per hectare (L/ha). Formulated compounds were applied to the plant material with an overhead Mandel track sprayer equipped with 8002E nozzles calibrated to deliver 187 L/ha over an application area of 0.503 square meters (m^2) at a spray height of 18 inches ([…]) above average plant canopy. Control plants were sprayed in the same manner with the solvent blank.
(§3) The treated plants and control plants were placed in a greenhouse as described above and watered by subirrigation to prevent washoff of the test compounds. After 20-22 d, the condition of the test plants as compared with that of the control plants was determined visually and scored on a scale of 0 to 100 percent where 0 corresponds to no injury and 100 corresponds to complete kill. […]
(§4) The values reported are means.

[2] = tested on: CIRAR=Cirsium arvense (L.) Scop. (Canada thistle); test: Postemergent herbicidal activity in the greenhouse; conditions: 21-28 DAAA
Description: as §1, §2, §3, §4

[3] = tested on: PAPRH=Papaver rhoeas L. (common poppy); test: Postemergent herbicidal activity in the greenhouse; conditions: 21-28 DAAA
Description: as §1, §2, §3, §4

[4] = tested on: SINAR=Sinapis arvensis L. (wild mustard); test: Postemergent herbicidal activity in the greenhouse; conditions: 21-28 DAAA
Description: as §1, §2, §3, §4

[5] = tested on: VERSS=Veronica spp (speedwell); test: Postemergent herbicidal activity in the greenhouse; conditions: 21-28 DAAA
Description: as §1, §2, §3, §4

[6] = tested on: CHEAL=Chenopodium album L. (common lambsquarters); test: Postemergent herbicidal activity in the greenhouse; conditions: 21-28 DAAA
Description: as §1, §2, §3, §4

[7] = tested on: KCHSC=Kochia scoparia (L.) Schrad. (Kochia); test: Postemergent herbicidal activity in the greenhouse; conditions: 21-28 DAAA
Description: as §1, §2, §3, §4

[8] = tested on: ANTAR=Anthemis arvensis (field chamomile); test: Postemergent herbicidal activity in the greenhouse; conditions: 21-28 DAAA
Description: as §1, §2, §3, §4

[9] = tested on: Res-PAPRH=Papaver rhoeas L. (common poppy) resistant to tribenuron and thifensulfuron (ALS) and 2,4-D; test: Postemergent herbicidal activity in the greenhouse; conditions: 21-28 DAAA
Description: as §1, §2, §3, §4

[10] = tested on: PAPRH=Papaver rhoeas L. (common poppy); test: Postemergence field trial, Granon, Spain (Table 7)
Description: Field trials were established in Spain (Banares and Granon) and Germany (Bielefeld) to evaluate the efficacy of Compound 5, Compound 6, and Compound 7. Trials were designed as randomized complete blocks with three to four replicates. Trials were established in winter wheat with natural weed population with plot sizes of 2-2.5 meters (m) by 6-8 m (width×length). The crops were grown using normal cultural practices for fertilization, seeding, and maintenance to ensure good growth of the crop. All herbicide treatments were applied post-emergence with applications made to the crops at the BBCH 21 to 23 growth stage. Herbicides were applied with backpack or bicycle sprayers using air as a propellant. The sprayers utilized flat fan air-induction spray nozzles calibrated to deliver a uniform spray pattern that provided thorough coverage of the foliage using a 200 L/ha spray volume. All treatments were applied with methylated seed oil (MSO) at 1.25% v/v. Phytotoxicity to the weeds was assessed visually at several intervals after application as percent overall control, compared to an untreated control plot. In general, three to four replicates were assessed for each treatment. All treatment results are an average of three or four replicates. Compound 5, Compound 6, and Compound 7 were applied as emulsifiable concentrate (EC) formulations at 100 g ae/L EC, respectively.

[11] = tested on: POLCO=Polygonum convolvulus L. (wild buckwheat); test: Postemergence field trial, Ellerslie, Alberta, Canada
Description: (§5) Field trials were established in Canada (in Ellerslie, Alberta; Nisku, Alberta and Hanley, Saskatchewan) to evaluate the efficacy of Compound 5, Compound 6, and Compound 7. Trials were designed as randomized complete blocks with four replicates. Trials were established in spring wheat with natural weed population with plot sizes of 2-3 meters (m) by 8-10 m (width×length). The crops were grown using normal cultural practices for fertilization, seeding, and maintenance to ensure good growth of the crop.
(§6) All herbicide treatments were applied post-emergence with applications made to the crops at BBCH (Phenological development stages of a plant) 14 to 22 growth stage. Herbicides were applied with backpack or bicycle sprayers using carbon dioxide (CO2) as a propellant. The sprayers utilized flat fan air-induction spray nozzles calibrated to deliver a uniform spray pattern that provided thorough coverage of the foliage using a 100 L/ha spray volume. All treatments were applied with methylated seed oil (MSO) at 1.25% v/v. Phytotoxicity to the weeds was assessed visually at several intervals after application as percent overall control, compared to an untreated control plot. In general, four replicates were assessed for each treatment. All treatment results are an average of four replicates.
(§7) Compound 5, Compound 6 and Compound 7 were applied as emulsifiable concentrate (EC) formulations at 100 g ae/L EC, respectively.

[12] = tested on: STEME=Stellaria media (L.) Vill. (common chickweed); test: as above
Description: as §5, §6, §7

[13] = tested on: CHEAL=Chenopodium album L. (common lambsquarters); test: as above
Description: as §5, §6, §7

Compound | Percent (%) Visual Control POLCO ([1]; 10 g ae/ha) | Percent (%) Visual Control POLCO ([1]; 20 g ae/ha) | Percent (%) Visual Control CIRAR ([2]; 10 g ae/ha) | Percent (%) Visual Control CIRAR ([2]; 20 g ae/ha) | Percent (%) Visual Control PAPRH ([3]; 10 g ae/ha) | Percent (%) Visual Control PAPRH ([3]; 20 g ae/ha) | Percent (%) Visual Control SINAR ([4]; 10 g ae/ha) | Percent (%) Visual Control SINAR ([4]; 20 g ae/ha) | Percent (%) Visual Control VERSS ([5]; 10 g ae/ha) | Percent (%) Visual Control VERSS ([5]; 20 g ae/ha) | Percent (%) Visual Control CHEAL ([6]; 10 g ae/ha) | Percent (%) Visual Control CHEAL ([6]; 20 g ae/ha) | Percent (%) Visual Control KCHSC ([7]; 10 g ae/ha) | Percent (%) Visual Control KCHSC ([7]; 20 g ae/ha) | Percent (%) Visual Control ANTAR ([8]; 10 g ae/ha) | Percent (%) Visual Control ANTAR ([8]; 20 g ae/ha) | Percent (%) Visual Control Res-PAPRH ([9]; 10 g ae/ha) | Percent (%) Visual Control Res-PAPRH ([9]; 20 g ae/ha) | Percent (%) Visual Control PAPRH 68DAAA ([10]; 5 g ae/ha) | Percent (%) Visual Control PAPRH 68DAAA ([10]; 10 g ae/ha) | also measured
N#CCOC(=O)c1nc(-c2ccc3cc[nH]c3c2F)c(F)c(N)c1Cl [Compound 6, cyanomethyl 4-amino-3-chloro-5-fluoro-6-(7-fluoro-1H-indol-6-yl)picolinate] | 98.3% | 100% | 50% | 58.3% | 100% | 100% | 90% | 96% | 86.3% | 86.5% | 100% | 100% | 73.3% | 84.3% | 100% | 98.3% | 95% | 100% | 55% | 69.3% | Percent (%) Visual Control PAPRH 68DAAA ([10]; 20 g ae/ha): 85.3%; Percent (%) Visual Control POLCO 51DAAA ([11]; 10 g ae/ha): 90.3%; Percent (%) Visual Control POLCO 51DAAA ([11]; 20 g ae/ha): 84.5%; Percent (%) Visual Control POLCO 51DAAA ([11]; 40 g ae/ha): 87%; Percent (%) Visual Control STEME 51DAAA ([12]; 10 g ae/ha): 83.8%; Percent (%) Visual Control STEME 51DAAA ([12]; 20 g ae/ha): 75.8%; Percent (%) Visual Control STEME 51DAAA ([12]; 40 g ae/ha): 90%; Percent (%) Visual Control CHEAL 51DAAA ([13]; 10 g ae/ha): 96.8%; Percent (%) Visual Control CHEAL 51DAAA ([13]; 20 g ae/ha): 98%; Percent (%) Visual Control CHEAL 51DAAA ([13]; 40 g ae/ha): 98%
Nc1c(F)c(-c2ccc3cc[nH]c3c2F)nc(C(=O)OCc2ccccc2)c1Cl [Compound 7, benzyl 4-amino-3-chloro-5-fluoro-6-(7-fluoro-1H-indol-6-yl)picolinate, reference compound] | 97.5% | 98.8% | 30% | 46.7% | 85% | 100% | 90% | 94% | 72.5% | 67.5% | 92.5% | 95% | 65% | 73.3% | 99.3% | 99.3% | 92.5% | 92.5% | 45% | 60% | Percent (%) Visual Control PAPRH 68DAAA ([10]; 20 g ae/ha): 74.3%; Percent (%) Visual Control POLCO 51DAAA ([11]; 10 g ae/ha): 79%; Percent (%) Visual Control POLCO 51DAAA ([11]; 20 g ae/ha): 92.8%; Percent (%) Visual Control POLCO 51DAAA ([11]; 40 g ae/ha): 96.8%; Percent (%) Visual Control STEME 51DAAA ([12]; 10 g ae/ha): 73.3%; Percent (%) Visual Control STEME 51DAAA ([12]; 20 g ae/ha): 80.8%; Percent (%) Visual Control STEME 51DAAA ([12]; 40 g ae/ha): 83.3%; Percent (%) Visual Control CHEAL 51DAAA ([13]; 10 g ae/ha): 94.8%; Percent (%) Visual Control CHEAL 51DAAA ([13]; 20 g ae/ha): 98%; Percent (%) Visual Control CHEAL 51DAAA ([13]; 40 g ae/ha): 98%
